Legend:
[1] = Plasma free fraction by equilibrium dialysis; assay type: in vitro ADME; conditions: mouse plasma; read-out: Binding Mouse Plasma fu,p
Description: Plasma fu,p: The free fraction of a compound in plasma preparation determined by in vitro equilibrium dialysis.

[2] = test system: Eurofins CEREP SafetyScreen44 panel; assay: Eurofins CEREP SafetyScreen44 panel; assay type: binding
Description: Aside from selectivity over other DUB enzymes, it is important for a drug to have low affinity for other targets, and pharmacological profiling may be performed against panels of targets to assess the potential for, and to minimise, potential off-target effects. Examples of targets for which the compounds of the present invention may be screened against are those of the industry standard Eurofins-Cerep SafetyScreen44 panel, which includes 44 targets as a representative selection of GPCR receptors, transporters, ion channels, nuclear receptors, and kinase and non-kinase enzymes. Preferably, compounds of the invention have insignificant affinity against targets of this screening panel. Further examples of targets for which the compounds of the present invention may be screened against are kinases of the Thermo Fisher SelectScreen kinase profiling panel, which includes 39 targets as a representative selection of kinase enzymes. Preferably, compounds of the invention have insignificant affinity against targets of this screening panel. Additionally, examples of a particular enzyme class for which the compounds of the present invention may be screened against are the cathepsins (e.g. cathepsin A, B, C, H, K, L, L2, S, V and Z). Preferably, compounds of the invention have good selectivity for USP30 over one or more of these enzymes. […]

Mouse plasma stability = assay type: in vitro ADME; conditions: read-out: Stability Mouse plasma t½
Description: Other parameters that may be measured using standard assays that are indicative of a compound’s exposure profile include, for example plasma stability (half-life measurement), blood AUC, Cmax, Cmin and Tmax values.

TK6 cells = assay: In vitro micronucleus assay; assay type: cell-based; conditions: 27 hours recovery
Experimental: The micronucleus assay may be used to determine if a compound is genotoxic by evaluating the presence of micronuclei. Micronuclei may contain chromosome fragments produced from DNA breakage (clastogens) or whole chromosomes produced by disruption of the mitotic apparatus (aneugens).
(§1) Example 2 was assessed in the bacterial reverse mutation assay (Ames) and in vitro micronucleus assay. All in vitro tests were conducted with and without exogenous metabolic activation using concentrations up to those limited by cytotoxicity or insolubility.
Induction of chromosome damage was assessed using the in vitro micronucleus assay in TK6 cells. Example 2 was negative for induction of micronuclei when incubated for 3 hours in the presence of exogenous metabolic activation followed by 27 hours recovery, and also when incubated for 27 hours in the absence of exogenous metabolic activation followed by 27 hours recovery.

[3] = test system: P-glycoprotein (MDR1), human; assay: MDR1-MDCK flux assay; assay type: in vitro ADME; conditions: dog, read-out: MDR1-MDCK Effective Efflux Ratio
Description: The treatment of CNS disorders, including Alzheimer’s disease, Parkinson’s disease, and other disorders described herein, requires drug molecules to target the brain, which requires adequate penetration of the blood brain barrier. […] The probability that a compound can cross the blood brain barrier may be measured by an in vitro flux assay utilizing a MDR1-MDCK cell monolayer (Madin-Darby Canine Kidney cells transfected with MDR-1 resulting in overexpression of the human efflux transporter P-glycoprotein). Additionally, exposure may also be measured directly in brain and plasma using in vivo animal models.
MDR1-MDCK (Madin-Darby Canine Kidney cell monolayer) (in vitro) flux assay.

[4] = test system: Salmonella typhimurium strains TA98, TA100, TA1535 and TA97a and the Escherichia Coli strain WP2 uvrA pKM101; assay: Bacterial reverse mutation assay (Ames); assay type: cell-based; conditions: up to 5000 µg/plate with and without metabolic activation
Experimental: The bacterial reverse mutation assay (Ames Test) may be used to evaluate the mutagenic properties of compounds of the invention, commonly by using the bacterial strain Salmonella typhimurium, which is mutant for the biosynthesis of the amino acid histidine.
as §1

WT-MDCK in vitro flux = assay type: in vitro ADME; conditions: dog
Description: WT-MDCK (wild-type) in vitro flux.

hERG potassium channel = hERG potassium channel (Homo sapiens (Human), UniProt Q12809); assay: hERG potassium channel current in CHO cells; assay type: cell-based; conditions: 30 µM, stably expressed CHO cells
Sequence of hERG potassium channel (Q12809 whole entry): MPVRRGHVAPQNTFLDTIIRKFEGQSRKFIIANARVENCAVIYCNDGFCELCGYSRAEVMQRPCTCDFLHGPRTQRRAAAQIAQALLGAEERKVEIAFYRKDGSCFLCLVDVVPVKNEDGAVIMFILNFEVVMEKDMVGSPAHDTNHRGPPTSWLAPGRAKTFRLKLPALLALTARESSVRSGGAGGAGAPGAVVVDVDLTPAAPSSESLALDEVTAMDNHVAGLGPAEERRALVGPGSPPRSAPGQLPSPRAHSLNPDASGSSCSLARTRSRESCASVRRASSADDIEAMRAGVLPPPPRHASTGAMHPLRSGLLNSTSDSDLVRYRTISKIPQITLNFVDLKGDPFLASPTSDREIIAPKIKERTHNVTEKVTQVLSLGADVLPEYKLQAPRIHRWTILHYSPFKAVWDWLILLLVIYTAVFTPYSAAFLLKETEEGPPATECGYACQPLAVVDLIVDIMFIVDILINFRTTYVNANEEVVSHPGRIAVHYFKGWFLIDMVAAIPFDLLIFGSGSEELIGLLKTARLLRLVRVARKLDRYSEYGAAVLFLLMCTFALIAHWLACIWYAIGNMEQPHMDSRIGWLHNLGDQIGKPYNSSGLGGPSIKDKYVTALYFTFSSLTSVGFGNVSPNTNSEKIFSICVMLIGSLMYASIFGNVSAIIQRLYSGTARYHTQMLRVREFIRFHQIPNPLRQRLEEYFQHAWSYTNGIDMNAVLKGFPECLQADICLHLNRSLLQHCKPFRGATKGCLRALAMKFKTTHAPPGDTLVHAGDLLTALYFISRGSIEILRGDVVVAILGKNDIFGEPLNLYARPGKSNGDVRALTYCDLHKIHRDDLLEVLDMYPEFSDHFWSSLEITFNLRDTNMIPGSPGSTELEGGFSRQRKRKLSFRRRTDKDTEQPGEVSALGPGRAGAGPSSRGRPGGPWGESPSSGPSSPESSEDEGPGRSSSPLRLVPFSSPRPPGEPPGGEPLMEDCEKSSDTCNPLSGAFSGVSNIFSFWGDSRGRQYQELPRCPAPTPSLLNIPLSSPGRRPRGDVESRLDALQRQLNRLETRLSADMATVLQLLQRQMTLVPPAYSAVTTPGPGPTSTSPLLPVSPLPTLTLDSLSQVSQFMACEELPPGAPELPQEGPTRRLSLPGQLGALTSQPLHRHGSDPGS
Experimental: The hERG predictor assay provides valuable information about the possible binding of test compounds to the potassium channel and potential QT prolongation on […]. Inhibition of the hERG current causes QT interval prolongation resulting in potentially fatal ventricular tachyarrhythmia (Torsades de Pointes). Typically, assay data may be generated from an automated patch-clamp assay platform.
Example 2 was evaluated for effects on the hERG potassium channel, in stably expressed CHO cells at concentrations between 0.01 and 30 µM. Example 2 produced maximum inhibition value of 35% of the hERG current amplitude at 30 µM indicating little propensity for affecting the QT interval.

In the case of `C[C@@H]1C[C@@H](NC(=O)c2ncc(-c3cc(C#N)ccc3OC3CC3)o2)CN1C#N` [Example 1, 5-(5-cyano-2-cyclopropoxyphenyl)-N-((3R,5R)-1-cyano-5-methylpyrrolidin-3-yl)oxazole-2-carboxamide], the fraction unbound [1] is reported as 0.09, the “affinity for targets in this assay” value [2] is reported as “low affinity” and the half-life (Mouse plasma stability) is reported as greater than 2 h.
With `COC[C@@H]1C[C@@H](NC(=O)c2ncc(-c3cc(C#N)ccc3OC3CC3)o2)CN1C#N` [Example 2, 5-(5-cyano-2-cyclopropoxyphenyl)-N-((3R,5S)-1-cyano-5-(methoxymethyl)pyrrolidin-3-yl)oxazole-2-carboxamide] the induction of micronuclei (TK6 cells; 3 hours in the presence of exogenous metabolic activation) was “negative”, the induction of micronuclei (TK6 cells; 27 hours in the absence of exogenous metabolic activation) was “negative” and the fraction unbound [1] was 0.07. The efflux ratio [3] was 15, the “induction of mutations in reverse mutation assay” value [4] was “did not induce mutations” and the efflux ratio (WT-MDCK in vitro flux) was 0.7. The Papp A→B (WT-MDCK in vitro flux; A-B) was 10.7 ×10⁻⁶ cm/s, the “maximum inhibition of the hERG current amplitude” value (hERG potassium channel) was 35% and the half-life (Mouse plasma stability) was greater than 2 h.
